The source of these data is patent US20250154611A1, “SYSTEMS AND METHODS TO DETECT STEM CELL STRESS AND USES THEREOF” (Wayne State University, priority 2014, published 2025).

The test system of this assay is JNK. As to the kind of experiment: phospho-JNK western blot in mESCs under 200 mM sorbitol. The format is cell-based, mouse. Conditions: persisted throughout 1 hr. The protocol: FIG. 14. […] Blots are representative of triplicate experiments. Phospho-proteins and their loading controls are grouped between black lines.
FIG. 15. […] Blots are representative of triplicate experiments.
Hyperosmotic activation of signaling enzymes. […] Zhong, 2010; Xie, 2011. […] To determine the kinetics of activation of these five kinases in the described system, mESCs were treated with 200 mM sorbitol for 1 hr. Expression levels of the activated (i.e., phosphorylated) enzymes were assayed by western blot analysis (FIG. 14), including phospho-p38MAPK, phospho-JNK, phospho-MEK1/2, and phospho-AKT (the downstream effector of PI3K signaling).
Efficacy of enzyme inhibitors.
A general note: In western blotting, separated proteins are transferred to a membrane and probed.

For `OC[C@@H](O)[C@@H](O)[C@H](O)[C@@H](O)CO` [sorbitol], the “time at which activated JNK was first detected” value stood at 20 min.
